Several values for one entry are separate records, joined by “and”; a condition that tells them apart may be missing. Equal values may be shown once.
Key:
P. gingivalis ATCC3277 = test: MIC against oral organisms in the serial dilution test; type: cell-based, Porphyromonas gingivalis; details: Columbia broth with hemin and menadione, 7-10 days at 37° C. anaerobic, unit not given, stock solutions in ppm (w/w)
Text: (§1) Determination of the MIC Against Various Oral Organisms in the Serial Dilution Test
(§2) Medium: Thioglycolate broth with hemin and menadione • Columbia broth with hemin and menadione for P. gingivalis and P. nigrescens
(§3) Dilution medium: The appropriate amount of the substances was pipetted directly onto the medium.
(§4) Test organisms: Actinobacillus actinomycetemcomitans ATCC 43718 • Streptococcus gordonii ATCC 10558 • Streptococcus mutans ATCC 33402 • Actinomyces viscosus ATCC 43146 • Fusobacterium nucleatum subsp. polymorphum ATCC 10953 • Porphyromonas gingivalis ATCC 33277 • Prevotella nigrescens ATCC 33563
(§5) Incubation: 7-10 days at 37° C. anaerobic, or 24 h aerobic with 10% CO2for Streptococci and A. actinomycetemcomitans
(§6) Test solution: Stock solutions of all the test substances in ethanol comprising 1500 ppm (w/w) are used.
(§7) Bacteria are removed from blood agar plates using cotton-wool-tipped sticks and a suitable O.D. is established in the appropriate medium (McFarland 0.5); this solution is used undiluted for F. nucleatum and P. nigrescens and diluted 1:20 for the other strains. 0.1 ml of bacteria culture is added to 2 ml of each of the active substance solutions, and incubation is carried out as described above.

[1] = test system: A. actinomycetemcomitans ATCC43718; test: as above; type: cell-based, Actinobacillus actinomycetemcomitans; details: thioglycolate broth, 24 h aerobic with 10% CO2, unit not given, stock solutions in ppm (w/w)
Text: as §1, §2, §3, §4, §5, §6, §7

[2] = test system: Pseudomonas aeruginosa ATCC 15442; test: MIC in the agar incorporation test; type: cell-based; details: 24 hours at 37° C., unit not given, method gives agar concentrations in ppm
Description: (§8) Test solution: 1% stock solutions of all the test substances are prepared in a suitable solvent and diluted in serial dilutions as far as possible so that final concentrations of from 500 ppm to 10 ppm are obtained in the agar. Test principle: 0.3 ml of the particular dilution stage is mixed with 15 ml of still liquid nutrient medium. After solidification of the nutrient base, 10 μl of the test strains in a suitable organism dilution in 0.85% NaCl solution are applied point-wise to the agar medium: [table]

[3] = test system: Candida albicans ATCC 10231; test: MIC in the agar incorporation test; type: cell-based; details: Sabouraud 4% glucose agar, 3 days at 28° C., unit not given, method gives agar concentrations in ppm
Description: as §8

[4] = test system: Staphylococcus epidermidis ATCC 12228; test: MIC in the agar incorporation test; type: cell-based; details: unit not given, method gives agar concentrations in ppm
Description: as §8

[5] = test system: Staphylococcus aureus ATCC 9144; test: MIC in the agar incorporation test; type: cell-based; details: 24 hours at 37° C., unit not given, method gives agar concentrations in ppm
Description: as §8

[6] = test system: Aspergillus niger ATCC 6275; test: MIC in the agar incorporation test; type: cell-based; details: Sabouraud 4% glucose agar, 3 days at 28° C., unit not given, method gives agar concentrations in ppm
Description: as §8

[7] = test system: Klebsiella pneumoniae ATCC 4352; test: MIC in the agar incorporation test; type: cell-based; details: unit not given, method gives agar concentrations in ppm
Description: as §8

[8] = test system: Escherichia coli ATCC 10536; test: MIC in the agar incorporation test; type: cell-based; details: 24 hours at 37° C., unit not given, method gives agar concentrations in ppm
Description: as §8

[9] = test system: Corynebacterium minutissimum ATCC 23348; test: MIC in the agar incorporation test; type: cell-based; details: unit not given, method gives agar concentrations in ppm
Description: as §8

[10] = test system: Salmonella choleraesuis ATCC 9184; test: MIC in the agar incorporation test; type: cell-based; details: unit not given, method gives agar concentrations in ppm
Description: as §8

[11] = test system: Staphylococcus aureus ATCC 6538; test: MIC in the agar incorporation test; type: cell-based; details: 24 hours at 37° C., unit not given, method gives agar concentrations in ppm
Description: as §8

[12] = test system: Proteus vulgaris ATCC 6896; test: MIC in the agar incorporation test; type: cell-based; details: unit not given, method gives agar concentrations in ppm
Description: as §8

[13] = test system: Escherichia coli NCTC 8196; test: MIC in the agar incorporation test; type: cell-based; details: 24 hours at 37° C., unit not given, method gives agar concentrations in ppm
Description: as §8

[14] = test system: Propionibacterium acnes ATCC 6919; test: MIC in the agar incorporation test; type: cell-based; details: unit not given, method gives agar concentrations in ppm
Description: as §8

[15] = test system: Actinomyces viscosus ATCC 43146; test: Substantivity on hydroxyapatite and growth-inhibiting action; type: cell-based; details: plates pretreated with synthetic saliva, incubated in ethanolic solution comprising 50 and 500 ppm; 24 hours at 37° C.; in comparison with an untreated control (FIGS. 1 and 2)
Description: Principle: apatite plates (dia. 10 mm) are placed in synthetic saliva (Deutsche Zahnärztliche Zeitschrift DZZ May 2002), rinsed in NaCl and then incubated in an ethanolic solution of test substances (II) and (III) comprising 50 and 500 ppm. The plates are then introduced into a Nunclon Surface titre plate (12 wells) and incubated for 24 hours at 37° C. in Caso nutrient medium which has been inoculated with Actinomyces viscosus ATCC 43146 (about 10^5/ml).

S. gordonii ATCC10558 = test: MIC against oral organisms in the serial dilution test; type: cell-based, Streptococcus gordonii; details: thioglycolate broth, 24 h aerobic with 10% CO2, unit not given, stock solutions in ppm (w/w)
Text: as §1, §2, §3, §4, §5, §6, §7

A. viscosus ATCC43146 = test: as above; type: cell-based, Actinomyces viscosus; details: thioglycolate broth, 7-10 days at 37° C. anaerobic, unit not given, stock solutions in ppm (w/w)
Text: as §1, §2, §3, §4, §5, §6, §7

S. mutans ATCC33402 = test: as above; type: cell-based, Streptococcus mutans; details: thioglycolate broth, 24 h aerobic with 10% CO2, unit not given, stock solutions in ppm (w/w)
Text: as §1, §2, §3, §4, §5, §6, §7

[16] = test system: biofilm of a defined mixed culture of gram+ and gram− oral organisms and a yeast (Candida albicans) on hydroxyapatite discs; test: Activity in the biofilm model (in vitro supragingival plaque); type: cell-based; details: 0.5% substance (II) in mouthwash formulation
Text: Test of the Activity of 2-dodecyloxy-benzoic Acid (II) in the Biofilm Model
Principle: see Guggenheim et a/. (2001), “Validation of an in vitro biofilm model of supragingival plaque”, J. Dent Res. 80 (1)
Hydroxyapatite discs are pretreated with human saliva and a biofilm of a defined mixed culture of various gram+ and gram− oral organisms (Streptococci, Actinomyces sp., Veillonella & Fusobacterium sp. & others) and a yeast (Candida albicans) are allowed to grow on the hydroxyapatite. During the test period of 4 days, the discs are immersed, several times in all, in the below given application formulation of the substance (II),
and at the end the biofilm is harvested and the number of living cells is determined.

P. nigrescens ATCC33563 = test: MIC against oral organisms in the serial dilution test; type: cell-based, Prevotella nigrescens; details: Columbia broth with hemin and menadione, 7-10 days at 37° C. anaerobic, unit not given, stock solutions in ppm (w/w)
Text: as §1, §2, §3, §4, §5, §6, §7

[17] = test system: F. nucleatum subsp. polymorphum ATCC10953; test: as above; type: cell-based, Fusobacterium nucleatum subsp. polymorphum; details: thioglycolate broth, 7-10 days at 37° C. anaerobic, unit not given, stock solutions in ppm (w/w)
Text: as §1, §2, §3, §4, §5, §6, §7

SMILES	MIC (P. gingivalis ATCC3277)	MIC [1]	Minimum Inhibitory Concentration (MIC) [2]	Minimum Inhibitory Concentration (MIC) [3]	Minimum Inhibitory Concentration (MIC) [4]	Minimum Inhibitory Concentration (MIC) [5]	Minimum Inhibitory Concentration (MIC) [6]	Minimum Inhibitory Concentration (MIC) [7]	Minimum Inhibitory Concentration (MIC) [8]	Minimum Inhibitory Concentration (MIC) [9]	Minimum Inhibitory Concentration (MIC) [10]	Minimum Inhibitory Concentration (MIC) [11]	Minimum Inhibitory Concentration (MIC) [12]	Minimum Inhibitory Concentration (MIC) [13]	Minimum Inhibitory Concentration (MIC) [14]	growth of Actinomyces viscosus after adsorption of the substance onto hydroxyapatite plates [15]	MIC (S. gordonii ATCC10558)	MIC (A. viscosus ATCC43146)	MIC (S. mutans ATCC33402)	MIC (P. nigrescens ATCC33563)	further results
CCCCCCCCCCCCOc1ccccc1C(=O)O [II, 2-dodecyloxy-benzoic acid]	7.5	>15	>500	>500	15.63	31.25	>500	>500	>500	15.63	>500	31.25	>500	>500	15.63	inhibition of the growth	15	1.88	7.5	>15	number of living cells of the harvested biofilm (mean values) ([16]; discs immersed several times during 4 days, two independent tests): 1.2 × 10^5 CFU/disc and 1.7 × 10^5 CFU/disc; microbial count of the biofilm on the hydroxyapatite discs compared with the placebo formulation ([16]; test period of 4 days): marked reduction; MIC [17]: >15
CCCCCCCCCCCCCCCCOc1cc(C(=O)O)cc(C(=O)O)c1 [III, 5-hexadecyloxy-isophthalic acid]	≦0.94	15	>48	>48	12	24	>48	>48	>48	24	>48	24	>48	>48	12	inhibition of the growth	≦0.94	1.88	3.75	>15	MIC [17]: >15

Reference: US20070196407A1, “Alkoxyphenylcarboxylic acid derivatives” (priority 2004, published 2007)
